Test results published in patent publication US8962621B2 (Shanghai Institute of Pharmaceutical Industry, priority 2010, dated 2015).

Key:
DA reuptake = assay: Oxidation tremor test (oxotremorine-induced tremors); format: in vivo, mice
From the text: (§1) Tests of the 5-hydroxytryptophan (DL-5-HTP) potentiation in mice, Yohimbine toxicity enhancement in mice and oxidation tremors can verify a compound's inhibition effect on 5-HT, NA and DA reuptake. Compound VI-2 is selected for the tests.
a) Principles • The pathogenesis of paralysis agitans is primarily related to the imbalance between DA function and Ach function. […] If the same function can be exerted in vivo, VI-2 will be able to partially antagonize the symptoms induced by an M receptor agonist.
b) Test Method • This test consists of 6 experimental groups: Model control group, VI-2-1 (300 mg/kg) group, VI-2-2 (200 mg/kg) group, VI-2-3 (120 mg/kg) group, VI-2-4 (60 mg/kg) group and VI-2-5 (30 mg/kg) group. For each VI-2 group, the compound at the corresponding dosage is administrated orally, or as in the case of the Model control group, N.S is given to the animals. One hour after the treatment, oxotremorine (0.5 mg/kg, 0.1 mL/10 g) is administrated by intraperitoneal injection to the mice in all groups. Responses of the mice are observed.

5-HT Transporter (hSERT) = 5-HT Transporter (hSERT) (Homo sapiens, UniProt P31645); assay: Inhibition of [3H]-5-HT reuptake in HEK 293 cells stably expressing hSERT;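 also: compound preincubated 10 min at 30 °C, then 10 min uptake, filter-bound radioactivity counted by scintillation, inhibition relative to total (blank) minus non-specific (positive control) uptake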
male Kunming mice = assay: Mice forced swimming test; format: in vivo
Outline: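 Mice pre-screened by 6-min swim in 25° C. water, 10 cm deep; those stopping at about 70-160 s used 24 h later. Samples given intragastrically at 10 mL·kg^−1, saline as blank, and 1 h later mice swum 6 min. Immobility over last 4 min recorded, t-test.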

rats = assay: Learned helplessness experiment (conditioned avoidance test); format: in vivo; settings: for Incubation period of escape / Number of times of successful avoidance: one week, test 24 h after last administration, n = 10
From the text: (1) Principles • This is an animal model of depression. In this experiment, an animal is placed under conditions with aversive stimulus which it can't escape. […] This is a well recognized depression state, in which the level of catecholamine in the animal's brain is reduced. An antidepressant can act against this state. The learned helplessness model is sensitive to a variety of antidepressants used in a sub-long period (3-7 d), including tricyclic antidepressants, monoamine oxidase inhibitors, monoamine reuptake inhibitors and atypical antidepressants.
(2) Test Method • The animals are grouped. The pre-shock animals are generated the first day by performing inescapable electric shock. The pre-shock animals are given foot electric shock (0.8 mA, 15 s) for 60 times (1 min interval). Rats in the control group are only put into the cage for a same period of time but without any electric shock. • The administration of drugs starts the next day and lasts for one week. […] The conditioned avoidance test is conducted 24 h after the last administration to determine the number of times of successful avoidance and the incubation period of escape.

[1] = system: Histidine auxotroph mutant of mouse salmonella TA97, TA98, TA100 and TA102; format: cell-based
From the text: 5. […] 6. Bacterial Reverse Mutation Test of Compounds VI-1 VI-2 and VI16 • Strains: Histidine auxotroph mutant of mouse salmonella TA97, TA98, TA100 and TA102. • Test method: The one reported in Maron DM et al: (1983) Mutay Res. 113, 173-216 is used. • Results: The test consists of two parts, i.e., −S9 and +S9. […] No bacteriostatic actions to all the strains are observed at all the other dosages, and the growth background is good.

5-HT reuptake = assay: 5-Hydroxytryptophan (DL-5-HTP) potentiation in mice (head twitches); format: in vivo; settings: for Frequency of head twitches 0 (number of mice) / Frequency of head twitches I (number of mice) / Frequency of head twitches II (number of mice) / Frequency of head twitches III (number of mice): Pargyline 75 mg/kg s.c., DL-5-HTP i.v.
From the text: as §1
a) Principles • Taking DL-5-HTP as the precursor of 5-HT, the MAOs inhibitor Pargyline can inhibit the enzymatic degradation […]. While in mice, characteristic symptoms—head twitches can be observed.
b) Test Method • Three different dosages of VI-2 are used: 30, 15 and 7.5 mg/kg. The mouse is treated as follows: first, intraperitoneal injection of the compound, 0.2 mL/10 g; 30 min later, subcutaneous injection of Pargyline, 75 mg/kg; and 90 min later, intraveneous injection of DL-5-HTP. The induced head twitches of the mouse are observed 15 min later.

male ICR mice = assay: Mice tail suspension test; format: in vivo
Outline: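 Samples given intragastrically at 10 mL·kg^−1, saline for controls; mice tail-suspended 1 h later. Immobility time was scored over 4 min after a 2 min lead-in, and improvement % calculated as reduction in immobility relative to the saline group.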

[2] = Venlafaxine 30 mg/kg, VI-2 at 3 doses (20, 10, 5 mg/kg)

5-HT Transporter (hSERT), sequence (P31645 whole entry): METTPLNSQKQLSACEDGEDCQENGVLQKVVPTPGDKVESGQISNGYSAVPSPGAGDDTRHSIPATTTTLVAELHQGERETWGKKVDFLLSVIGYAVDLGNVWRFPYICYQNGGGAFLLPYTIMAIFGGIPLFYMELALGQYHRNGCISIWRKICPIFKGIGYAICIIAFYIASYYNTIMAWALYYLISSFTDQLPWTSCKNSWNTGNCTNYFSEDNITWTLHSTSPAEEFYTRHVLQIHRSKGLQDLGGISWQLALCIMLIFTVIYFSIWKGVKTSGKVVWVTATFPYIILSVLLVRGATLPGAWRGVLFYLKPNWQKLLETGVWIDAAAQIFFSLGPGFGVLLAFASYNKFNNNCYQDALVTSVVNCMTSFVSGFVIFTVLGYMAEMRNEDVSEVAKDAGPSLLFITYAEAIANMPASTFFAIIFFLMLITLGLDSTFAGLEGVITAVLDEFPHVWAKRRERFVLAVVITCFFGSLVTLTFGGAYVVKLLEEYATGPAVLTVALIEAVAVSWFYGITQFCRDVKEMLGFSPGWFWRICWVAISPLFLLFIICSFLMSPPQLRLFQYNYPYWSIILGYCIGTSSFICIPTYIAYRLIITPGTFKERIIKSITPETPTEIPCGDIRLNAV

SMILES: CN(C)CCC(c1ccc(Cl)c(Cl)c1)N1CCCC1 (centres unmarked) [VI-2, N,N-dimethyl-3-(3,4-dichlorophenyl)-3-(pyrrolidin-1-yl)-propylamine]
- anti-tremor effect (in words) (DA reuptake; 30 mg/kg oral, oxotremorine 0.5 mg/kg i.p. 1 h later): No anti-tremor effect is observed
- Side overturn (in words) (DA reuptake; 120 mg/kg or lower): rarely observed
- Side overturn (in words) (DA reuptake; 300 mg/kg and 200 mg/kg oral): Side overturn of different extent is observed
- Activity of the mice (in words) (DA reuptake; 300→200→120→60→30 mg/kg = Model): The best activity of the mice is observed in the 300 mg/kg group
- intensity of tremors versus dose (in words) (DA reuptake; Model→30→60→120→200→300 mg/kg from high to low): Clear dose-effect relationship is observed
- antagonism of the tremor symptom (in words) (DA reuptake; by enhancing the function of DA): can partially antagonize the tremor symptom
- doses giving improvement of tremor (in words) (DA reuptake; oral 30-300 mg/kg, oxotremorine 0.5 mg/kg i.p.): An improvement is only observed at doses up to 120 mg/kg
- enhancement of DA function at therapeutic doses (in words) (DA reuptake; therapeutic doses (10-20 mg/kg)): no such enhancement
- inhibition effect towards the reuptake of 5-HT (in words) (5-HT Transporter (hSERT)): relatively strong inhibition effect
- inhibition at 10 µM (5-HT Transporter (hSERT); HEK293, read-out: 5-HT Reuptake Inhibition): 94.8%
- effect in the forced swimming test (in words) (male Kunming mice; 20 mg/kg): significant reduction in the immobility time
- IT (sec), immobility time (male Kunming mice; 20.0 mg/kg single intragastric administration, 1 h before test, last 4 min of 6 min, n=12): 74.9 ± 37.8 s
- Incubation period of escape (rats; 5 mg/kg): 140.3 ± 195.44 s
- Number of times of successful avoidance (rats; 5 mg/kg): 21.2 ± 6.73
- Incubation period of escape (rats; 10 mg/kg): 188.3 ± 178.38 s
- Number of times of successful avoidance (rats; 10 mg/kg): 19.5 ± 8.83
- Incubation period of escape (rats; 20 mg/kg): 171.1 ± 159.69 s
- Number of times of successful avoidance (rats; 20 mg/kg): 18.9 ± 9.35
- incubation period of escape (in words) (rats; [2]): significantly shortened incubation period of escape
- times of successful avoidance (in words) (rats; [2]): relatively more times of successful avoidance
- bacteriostatic action ([1]; 5000 μg per dish, TA98 without S9 and TA97 with S9, none at other dosages): bacteriostatic action is showed
- Ames test result ([1]; TA97, TA98, TA100, TA102, with or without S9, all test dosages): negative
- Frequency of head twitches 0 (number of mice) (5-HT reuptake; 7.5 mg/kg intraperitoneal): 1
- Frequency of head twitches I (number of mice) (5-HT reuptake; 7.5 mg/kg intraperitoneal): 3
- Frequency of head twitches II (number of mice) (5-HT reuptake; 7.5 mg/kg intraperitoneal): 6
- Frequency of head twitches III (number of mice) (5-HT reuptake; 7.5 mg/kg intraperitoneal): 0
- Frequency of head twitches 0 (number of mice) (5-HT reuptake; 15 mg/kg intraperitoneal): 0
- Frequency of head twitches I (number of mice) (5-HT reuptake; 15 mg/kg intraperitoneal): 0
- Frequency of head twitches II (number of mice) (5-HT reuptake; 15 mg/kg intraperitoneal): 4
- Frequency of head twitches III (number of mice) (5-HT reuptake; 15 mg/kg intraperitoneal): 6
- Frequency of head twitches 0 (number of mice) (5-HT reuptake; 30 mg/kg intraperitoneal): 0
- Frequency of head twitches I (number of mice) (5-HT reuptake; 30 mg/kg intraperitoneal): 0
- Frequency of head twitches II (number of mice) (5-HT reuptake; 30 mg/kg intraperitoneal): 0
- Frequency of head twitches III (number of mice) (5-HT reuptake; 30 mg/kg intraperitoneal): 10
- enhancement of the effect of 5-HTP (in words) (5-HT reuptake; 30, 15 and 7.5 mg/kg, significant dose-effect relationship): significantly enhance the effect of 5-HTP
- IT (sec), immobility time (male ICR mice; 20.0 mg/kg single intragastric administration, 1 h before test, 4 min observation, n=12): 36.19 ± 25.78 s
- Improvement (%) (male ICR mice; 20.0 mg/kg single oral administration, versus blank control IT): 63.52%
- effect on immobility time in the tail suspension test (in words) (male ICR mice; 20 mg/kg, efficacy similar to Venlafaxine): significant reduction in the immobility time
